## C[C@@H](O)c1nccc(N2C[C@H]3CCC[C@@H](C2)N3c2ccnc([C@@H](C)O)n2)n1 (stereo in doubt)
  melting point: 151 to 158 °C

## C[C@@H](O)c1nccc(N2CCc3cc(-c4ccsc4)ccc3C2)n1 (stereo in doubt) [Example 248, 1-[4-(6-Thiophen-3-yl-3,4-dihydro-1H-isoquinolin-2-yl)-pyrimidin-2-yl]-ethanol]
  melting point: 125.5 to 127.5 °C

## C[C@@H](O)c1nccc(N2CCC(C3CCN(c4ccnc([C@@H](C)O)n4)CC3)CC2)n1 [Example 3, 1R-(4-{1′-[2-(1R-Hydroxy-ethyl)-pyrimidin-4-yl]-[4,4′]bipiperidinyl-1-yl}-pyrimidin-2-yl)-ethanol]
  melting point: 144 to 153 °C

## C[C@@H]1CN(c2ccnc([C@@H](C)O)n2)[C@@H](C)CN1c1ccnc([C@@H](C)O)n1 [Example 4, 1R-(4-{4-[2-(1R-Hydroxy-ethyl)-pyrimidin-4-yl]-2R,S-dimethyl-piperazin-1-yl}-pyrimidin-2-yl)-ethanol]
  melting point: 153 to 155 °C

## C[C@@H](O)c1nccc(N2CCN(c3nc4ncccc4o3)[C@@H](C)C2)n1 [Example 20, 1R-[4-(3S-Methyl-4-oxazolo[4,5-b]pyridin-2-yl-piperazin-1-yl)-pyrimidin-2-yl]-ethanol]
  melting point: 158 to 161 °C

## Cc1cc(C)nc(N2C[C@@H](C)N(c3ccnc([C@@H](C)O)n3)[C@@H](C)C2)n1 [Example 27, 1R-{4-[4-(4,6-Dimethyl-pyrimidin-2-yl)-2R,6S-dimethyl-piperazin-1-yl]-pyrimidin-2-yl}-ethanol]
  melting point: 150.5 to 152 °C

## C[C@@H]1CN(c2nc3ncccc3o2)C[C@H](C)N1c1ccnc([C@@H](C)O)n1 [Example 31, 1R-[4-(2R,6S-Dimethyl-4-oxazolo-[4,5-b]pyridin-2-yl-piperazin-1-yl)-pyrimidin-2-yl]-ethanol]
  melting point: 231 to 233 °C

## C[C@@H]1CN(c2nc3cccnc3o2)C[C@H](C)N1c1ccnc([C@@H](C)O)n1 [Example 33, 1R-[4-(2R,6S-Dimethyl-4-oxazolo[5,4-b]pyridin-2-yl-piperazin-1-yl)-pyrimidin-2-yl]-ethanol]
  melting point: 204 to 207 °C

## C[C@@H]1CN(c2ccnc(C(C)(C)O)n2)C[C@H](C)N1c1ccnc([C@@H](C)O)n1 [Example 34, 2-(4-{4-[2-(1R-Hydroxy-ethyl)-pyrimidin-4-yl]-3R,5S-dimethyl-piperazin-1-yl}-pyrimidin-2-yl)-propan-2-ol]
  melting point: 138 to 140 °C

## C[C@@H](O)c1nccc(N2CCN(c3ccnc(CO)n3)[C@@H](C)C2)n1 [Example 37, 1R-{4-[4-(2-Hydroxymethyl-pyrimidin-4-yl)-3S-methyl-piperazin-1-yl]-pyrimidin-2-yl}-ethanol]
  melting point: 178 to 181 °C

## C[C@@H](O)c1nccc(N2CCN(c3ccnc([C@@H](C)O)n3)[C@@H](C)C2)n1 [Example 38, 1R-(4-{4-[2-(1R-Hydroxy-ethyl)-pyrimidin-4-yl]-2S-methyl-piperazin-1-yl}-pyrimidin-2-yl)-ethanol]
  melting point: 158 to 160 °C

## C[C@@H]1CN(c2ccnc([C@@H](C)O)n2)CCN1c1ccnc([C@@H](C)O)n1 [Example 39, 1R-(4-{4-[2-(1R-Hydroxy-ethyl)-pyrimidin-4-yl]-2R-methyl-piperazin-1-yl}-pyrimidin-2-yl)-ethanol]
  melting point: 155 to 157 °C

## CC(=O)c1nccc(N2[C@H](C)CN(c3ccnc([C@@H](C)O)n3)C[C@@H]2C)n1 [Example 45, 1-(4-{4-[2-(1R-Hydroxy-ethyl)-pyrimidin-4-yl]-2R,6S-dimethyl-piperazin-1-yl}-pyrimidin-2-yl)-ethanone]
  melting point: 123 to 127 °C

## CC(=O)c1nccc(N2C[C@@H](C)N(c3ccnc([C@@H](C)O)n3)[C@@H](C)C2)n1 [Example 46, 1-(4-{4-[2-(1R-Hydroxy-ethyl)-pyrimidin-4-yl]-3R,5S-dimethyl-piperazin-1-yl}-pyrimidin-2-yl)-ethanone]
  melting point: 150 to 164 °C

## CC(=O)c1nccc(N2C[C@@H](C)N(c3ccnc(C(C)=O)n3)[C@@H](C)C2)n1 [Example 63, 1-{4-[4-(2-Acetyl-pyrimidin-4-yl)-2R*,6S*-dimethyl-piperazin-1-yl]-pyrimidin-2-yl}-ethanone]
  melting point: > 235 °C (dec.)

## Cc1cc(C)nc(N2[C@H](C)CN(c3ccnc([C@@H](C)O)n3)C[C@@H]2C)n1 [Example 66, 1R-{4-[4-(4,6-Dimethyl-pyrimidin-2-yl)-3R,5S-dimethyl-piperazin-1-yl]-pyrimidin-2-yl}-ethanol]
  melting point: 141.5 to 142.5 °C

## C[C@@H](O)c1nccc(N2CCc3c(c(=O)n(-c4cnc5ccccc5n4)n3C)C2)n1 [Example 75, (R)-5-[2-(1-Hydroxy-ethyl)-pyrimidin-4-yl]-1-methyl-2-quinoxalin-2-yl-1,2,4,5,6,7-hexahydro-pyrazolo[4,3-c]pyridin-3-one]
  melting point: 217 to 219 °C (dec.)

## Cc1nc2c(c(-c3ccccc3)n1)CCN(c1ccnc([C@@H](C)O)n1)C2 [Example 86, (R)-1-[4-(2-Methyl-4-phenyl-5,8-dihydro-6H-pyrido[3,4-d]pyrimidin-7-yl)-pyrimidin-2-yl]ethanol]
  melting point: 114 to 116 °C

## C[C@@H](O)c1nccc(N2CCc3cnc(-c4ccccc4)nc3C2)n1 [Example 87]
  melting point: 72 to 74 °C

## C[C@@H](O)c1nccc(N2CCc3c(nc(N)nc3-c3ccccc3)C2)n1 [Example 90]
  melting point: 225 to 228 °C (dec.)

## C[C@@H](O)c1nccc(N2CCc3c(nc(-c4ccccc4)nc3-c3ccccc3)C2)n1 [Example 91]
  melting point: 73 to 75 °C

## Cc1nc2c(c(Oc3ccccc3)n1)CCN(c1ccnc([C@@H](C)O)n1)C2 [Example 97]
  melting point: 156 to 158 °C

## Cc1nc2c(c(Sc3ccccc3)n1)CCN(c1ccnc([C@@H](C)O)n1)C2 [Example 98]
  melting point: 103 to 105 °C

## Cc1nc2c(c(N3CCc4ccccc43)n1)CCN(c1ccnc([C@@H](C)O)n1)C2 [Example 99]
  melting point: 128 to 131 °C

## C[C@@H](O)c1nccc(N2CCN(S(=O)(=O)/C=C/c3ccccc3)CC2)n1 [Example 111, (E)-1-R{4-[4-(2-phenyl-ethenesulfonyl)-piperazin-1-yl]-pyrimidin-2-yl}-ethanol]
  melting point: 68 to 70 °C

## C[C@@H](O)c1nccc(N2C[C@@H]3C[C@H]2CN3S(=O)(=O)c2ccc(Cl)cc2)n1 [Example 115]
  melting point: 83 to 88 °C

## C[C@@H](O)c1nccc(N2C[C@@H]3C[C@H]2CN3S(=O)(=O)c2cccs2)n1 [Example 116]
  melting point: 84 to 86 °C

## C[C@@H](O)c1nccc(N2C[C@@H]3C[C@H]2CN3S(=O)(=O)N(C)C)n1 [Example 120]
  melting point: 110 to 111 °C

## O=S(=O)(N1CCCC1)N1CCN(c2ccnc(CO)n2)CC1 [Example 121, {4-[4-(Pyrrolidine-1-sulfonyl)-piperazin-1-yl]-pyrimidin-2-yl}-methanol]
  melting point: 128 to 131 °C

## O=S(=O)(N1CCCCC1)N1CCN(c2ccnc(CO)n2)CC1 [Example 123]
  melting point: 141 to 142 °C

## C[C@@H]1CN(C(=O)/C=C/c2cc3ccccc3o2)C[C@H](C)N1c1ccnc([C@@H](C)O)n1 [Example 130, (E)-3-Benzofuran-2-yl-1-{4-[2-(1R-hydroxy-ethyl)-pyrimidin-4-yl]-2R,6S-dimethyl-piperazin-1-yl}-propenone]
  melting point: 80 to 82 °C

## C[C@@H]1CN(c2ccnc([C@@H](C)O)n2)C[C@H](C)N1C(=O)C1CCCCC1 [Example 131, Cyclohexyl-{4-[2-(1R-hydroxy-ethyl)-pyrimidin-4-yl]-2R,6S-dimethyl-piperazin-1-yl}-methanone]
  melting point: 174 to 175 °C

## C[C@@H]1CN(c2ccnc([C@@H](C)O)n2)C[C@H](C)N1C(=O)c1cc2cnccc2o1 [Example 132, Furo[3,2-c]pyridin-2-yl-{4-[2-(1R-hydroxy-ethyl)-pyrimidin-4-yl]-2R,6S-dimethyl-piperazin-1-yl}-methanone]
  melting point: 142 to 143 °C

## C[C@@H]1CN(c2ccnc([C@@H](C)O)n2)C[C@H](C)N1C(=O)CSc1ncccn1 [Example 160, 1-{4-[2-(1R-Hydroxy-ethyl)-pyrimidin-4-yl]-2R,6S-dimethyl-piperazin-1-yl}-2-(pyrimidin-2-ylsulfanyl)-ethanone]
  melting point: 60 to 70 °C

## C[C@@H](O)c1nccc(N2CCC(O)(c3ccccc3)CC2)n1 [Example 175, (R)-4-Phenyl-1-[2-(1-hydroxy-ethyl)-pyrimidin-4-yl]-piperidin-4-ol]
  melting point: 114 °C

## C[C@@H](O)c1nccc(N2CCC(=Cc3cccc(Cl)c3)CC2)n1 [Example 176, (R)-1-{4-[4-(3-Chlorobenzylidene)-piperidin-1-yl]-pyrimidin-2-yl}-ethanol]
  melting point: 45 to 55 °C

## C[C@@H](O)c1nccc(N2CCC(=CC(=O)c3ccccc3)CC2)n1 [Example 179]
  melting point: 44 to 59 °C

## C[C@@H](O)c1nccc(N2CCC(=C(c3ccccc3)c3ccccc3)CC2)n1 [Example 180]
  melting point: 108 to 109 °C

## C[C@@H](O)c1nccc(N2CCC(=C(c3ccccc3)c3ccccn3)CC2)n1 [Example 181]
  melting point: 98 to 101 °C

## C[C@@H](O)c1nccc(N2CCN(Cc3ccccn3)CC2)n1 [Example 182, (R)-1-[4-(4-Pyridin-2-ylmethyl-piperazin-1-yl)-pyrimidin-2-yl]-ethanol]
  melting point: 68 to 70 °C

## C[C@@H]1CN(c2nccc(-n3cncn3)n2)C[C@H](C)N1c1ccnc([C@@H](C)O)n1 [Example 196, 1R-{4-[2R,6S-Dimethyl-4-(4-[1,2,4]triazol-1-yl-pyrimidin-2-yl)-piperazin-1-yl]-pyrimidin-2-yl}-ethanol]
  melting point: 181 to 182 °C

## C[C@@H]1CN(c2ccnc(-c3cccnc3)n2)C[C@H](C)N1c1ccnc([C@@H](C)O)n1 [Example 201, 1R-{4-[2R,6S-Dimethyl-4-(2-pyridin-3-yl-pyrimidin-4-yl)-piperazin-1-yl]-pyrimidin-2-yl}-ethanol]
  melting point: 61 to 70 °C

## C[C@@H]1CN(c2ccnc(N3CCN(C)CC3)n2)C[C@H](C)N1c1ccnc([C@@H](C)O)n1 [Example 202, 1R-(4-{2R,6S-Dimethyl-4-[2-(4-methyl-piperazin-1-yl)-pyrimidin-4-yl]-piperazin-1-yl}-pyrimidin-2-yl)-ethanol]
  melting point: 60 to 70 °C

From patent US6936600B2, “Sorbitol dehrydrogenase inhibitors” (Pfizer Inc, priority 1999, dated 2005)
